Test results from ChEMBL document CHEMBL3352071, “Benzimidazoles: novel mycobacterial gyrase inhibitors from scaffold morphing” (ACS Med Chem Lett, 2014).
Converted amounts (≈) assume the structure as drawn.

How the values were obtained:
[1] = Inhibition of Mycobacterium tuberculosis H37Rv DNA gyrase A2B2 holoenzyme supercoiling activity using relaxed pBR322 substrate incubated for 90 mins by ethidium bromide staining based gel electrophoresis method
[2] = test system: Mycobacterium tuberculosis; assay: Antimicrobial activity against Mycobacterium tuberculosis H37Rv ATCC 27294; assay type: functional
DNA gyrase subunit B = DNA gyrase subunit B (Mycobacterium smegmatis, UniProt P0C559); assay: Inhibition of Mycobacterium smegmatis GyrB ATPase activity; parameters: species or system Mycolicibacterium smegmatis
Sequence of DNA gyrase subunit B (P0C559 whole entry): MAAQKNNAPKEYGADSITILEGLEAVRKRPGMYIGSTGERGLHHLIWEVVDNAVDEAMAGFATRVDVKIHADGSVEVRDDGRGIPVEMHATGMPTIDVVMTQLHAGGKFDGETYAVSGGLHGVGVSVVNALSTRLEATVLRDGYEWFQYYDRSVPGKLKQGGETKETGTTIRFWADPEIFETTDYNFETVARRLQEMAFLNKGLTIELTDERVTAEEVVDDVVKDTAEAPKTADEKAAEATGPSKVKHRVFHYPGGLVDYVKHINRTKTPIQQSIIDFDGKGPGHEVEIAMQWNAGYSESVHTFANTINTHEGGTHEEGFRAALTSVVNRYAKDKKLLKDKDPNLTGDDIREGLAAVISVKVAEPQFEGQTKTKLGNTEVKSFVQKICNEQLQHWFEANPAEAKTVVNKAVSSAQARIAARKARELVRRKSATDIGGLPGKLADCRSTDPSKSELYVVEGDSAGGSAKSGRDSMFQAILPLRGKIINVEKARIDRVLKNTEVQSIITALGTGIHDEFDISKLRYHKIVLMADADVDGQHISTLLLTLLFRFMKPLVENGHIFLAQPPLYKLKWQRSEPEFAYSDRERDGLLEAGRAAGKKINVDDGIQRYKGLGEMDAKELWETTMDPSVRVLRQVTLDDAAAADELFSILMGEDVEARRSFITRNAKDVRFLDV

THP-1 = assay: Cytotoxicity against human THP1 cells; assay type: cell-based
[3] = Octanol-water partition coefficient, logD of the compound at pH 7.4 by shake-flask method; assay type: physicochemical
[4] = molecular target: Voltage-gated inwardly rectifying potassium channel KCNH2 (Homo sapiens, UniProt Q12809)
Sequence of Voltage-gated inwardly rectifying potassium channel KCNH2 (Q12809 whole entry): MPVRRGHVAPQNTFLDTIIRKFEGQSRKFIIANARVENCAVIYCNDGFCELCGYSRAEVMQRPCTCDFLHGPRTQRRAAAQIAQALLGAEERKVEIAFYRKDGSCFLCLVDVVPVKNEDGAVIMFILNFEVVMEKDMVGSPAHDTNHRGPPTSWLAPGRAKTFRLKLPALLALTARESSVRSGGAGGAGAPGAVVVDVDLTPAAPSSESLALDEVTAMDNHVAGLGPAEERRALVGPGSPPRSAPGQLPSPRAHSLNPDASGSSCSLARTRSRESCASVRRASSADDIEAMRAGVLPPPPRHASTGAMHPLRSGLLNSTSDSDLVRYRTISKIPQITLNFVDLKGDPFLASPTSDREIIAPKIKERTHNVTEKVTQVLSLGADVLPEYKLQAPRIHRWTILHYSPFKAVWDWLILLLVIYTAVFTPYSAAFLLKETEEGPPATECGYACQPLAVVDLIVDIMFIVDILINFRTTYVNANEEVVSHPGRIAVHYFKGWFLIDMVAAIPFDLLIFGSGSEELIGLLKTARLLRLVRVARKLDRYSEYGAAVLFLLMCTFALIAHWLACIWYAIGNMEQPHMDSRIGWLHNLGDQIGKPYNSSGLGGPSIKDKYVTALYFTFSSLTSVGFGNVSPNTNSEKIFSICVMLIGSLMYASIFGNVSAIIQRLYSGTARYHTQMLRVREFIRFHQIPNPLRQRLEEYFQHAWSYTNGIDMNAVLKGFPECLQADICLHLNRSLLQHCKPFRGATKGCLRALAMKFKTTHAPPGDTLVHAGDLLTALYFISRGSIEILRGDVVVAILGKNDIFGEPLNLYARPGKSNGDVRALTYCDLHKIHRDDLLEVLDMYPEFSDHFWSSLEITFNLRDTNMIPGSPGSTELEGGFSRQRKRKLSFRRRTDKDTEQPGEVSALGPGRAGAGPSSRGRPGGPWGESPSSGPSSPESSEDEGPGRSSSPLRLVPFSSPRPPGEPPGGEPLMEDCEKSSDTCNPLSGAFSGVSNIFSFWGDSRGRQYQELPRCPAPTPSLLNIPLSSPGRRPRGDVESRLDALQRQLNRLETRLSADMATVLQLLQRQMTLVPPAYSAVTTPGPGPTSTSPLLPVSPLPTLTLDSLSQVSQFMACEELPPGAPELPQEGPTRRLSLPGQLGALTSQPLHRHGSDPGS
Description: Inhibition of human ERG by electrophysiology assay

[5] = Solubility of the compound; assay type: physicochemical
[6] = Permeability from apical to basolateral side in human Caco2 cells; assay type: ADME, cell-based; settings: Caco-2, read-out: permeability
[7] = Permeability from basolateral to apical side in human Caco2 cells; assay type: ADME, cell-based; settings: Caco-2, read-out: permeability
[8] = Clearance in Wistar rat at 1 mg/kg, iv; assay type: ADME, organism-based; parameters: dose 1 mg/kg, route intravenous; settings: in vivo
[9] = Volume of distribution at steady state in Wistar rat at 1 mg/kg, iv; assay type: ADME, organism-based; parameters: dose 1 mg/kg, route intravenous; settings: in vivo, read-out: Vdss
[10] = Elimination half life in Wistar rat at 1 mg/kg, iv; assay type: ADME, organism-based; parameters: dose 1 mg/kg, route intravenous; settings: in vivo, read-out: beta t1/2 (converted)
[11] = AUC (0 to infinity) in Wistar rat at 1 mg/kg, iv; assay type: ADME, organism-based; parameters: time infinity, dose 1 mg/kg, route intravenous; settings: plasma
[12] = AUC (0 to infinity) in Wistar rat at 10 mg/kg, po; assay type: ADME, organism-based; parameters: time infinity, dose 10 mg/kg, route oral; settings: plasma
[13] = Oral bioavailability in Wistar rat at 10 mg/kg; assay type: ADME, organism-based; settings: in vivo
Cytochrome P450 1A2 = molecular target: T1, Cytochrome P450 1A2 (Homo sapiens, UniProt P05177); assay: Inhibition of CYP1A2 (unknown origin); assay type: ADME
T1 sequence (P05177 whole entry): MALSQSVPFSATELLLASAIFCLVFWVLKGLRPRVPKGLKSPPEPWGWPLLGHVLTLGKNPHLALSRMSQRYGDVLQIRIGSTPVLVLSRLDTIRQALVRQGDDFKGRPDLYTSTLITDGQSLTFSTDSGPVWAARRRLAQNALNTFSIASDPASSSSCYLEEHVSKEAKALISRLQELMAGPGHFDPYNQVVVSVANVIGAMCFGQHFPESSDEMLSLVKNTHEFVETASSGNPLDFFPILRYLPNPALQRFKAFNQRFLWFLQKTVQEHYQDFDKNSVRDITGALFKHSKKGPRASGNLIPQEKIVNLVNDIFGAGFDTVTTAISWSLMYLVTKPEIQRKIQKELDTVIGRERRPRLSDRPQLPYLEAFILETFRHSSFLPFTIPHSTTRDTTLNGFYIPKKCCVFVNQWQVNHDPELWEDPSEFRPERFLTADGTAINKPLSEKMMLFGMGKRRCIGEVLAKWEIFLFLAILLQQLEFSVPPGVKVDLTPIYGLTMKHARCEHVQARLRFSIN

Cytochrome P450 2C9 = Cytochrome P450 2C9 (Homo sapiens, UniProt P11712); assay: Inhibition of CYP2C9 (unknown origin); assay type: ADME
Sequence of Cytochrome P450 2C9 (P11712 whole entry): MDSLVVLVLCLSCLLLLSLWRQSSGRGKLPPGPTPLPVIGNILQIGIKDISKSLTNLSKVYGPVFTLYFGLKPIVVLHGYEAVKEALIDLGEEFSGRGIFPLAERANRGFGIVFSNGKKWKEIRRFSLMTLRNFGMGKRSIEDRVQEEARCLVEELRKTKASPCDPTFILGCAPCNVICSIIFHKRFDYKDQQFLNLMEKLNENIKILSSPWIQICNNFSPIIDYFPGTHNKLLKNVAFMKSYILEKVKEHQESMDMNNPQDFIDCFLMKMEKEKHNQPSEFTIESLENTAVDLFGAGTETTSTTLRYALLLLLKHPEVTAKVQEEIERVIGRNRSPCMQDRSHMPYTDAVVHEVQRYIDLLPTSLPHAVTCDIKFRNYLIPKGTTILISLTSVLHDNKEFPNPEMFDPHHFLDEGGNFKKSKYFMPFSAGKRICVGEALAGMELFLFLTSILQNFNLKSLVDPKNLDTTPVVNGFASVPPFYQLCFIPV

Cytochrome P450 2C19 = Cytochrome P450 2C19 (Homo sapiens, UniProt P33261); assay: Inhibition of CYP2C19 (unknown origin); assay type: ADME
Sequence of Cytochrome P450 2C19 (P33261 whole entry): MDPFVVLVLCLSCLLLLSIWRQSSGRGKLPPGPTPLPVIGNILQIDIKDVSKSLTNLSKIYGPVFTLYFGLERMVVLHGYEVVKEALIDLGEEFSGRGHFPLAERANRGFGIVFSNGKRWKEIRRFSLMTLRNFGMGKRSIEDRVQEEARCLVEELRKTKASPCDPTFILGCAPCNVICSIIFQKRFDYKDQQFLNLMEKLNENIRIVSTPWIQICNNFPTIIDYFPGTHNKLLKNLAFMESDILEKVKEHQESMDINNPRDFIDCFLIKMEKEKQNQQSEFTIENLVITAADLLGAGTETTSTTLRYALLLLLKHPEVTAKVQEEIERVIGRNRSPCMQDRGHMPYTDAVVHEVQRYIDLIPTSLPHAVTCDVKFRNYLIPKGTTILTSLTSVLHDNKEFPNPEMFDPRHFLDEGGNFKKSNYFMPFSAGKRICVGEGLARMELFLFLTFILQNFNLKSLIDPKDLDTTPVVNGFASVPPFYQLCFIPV

Cytochrome P450 2D6 = Cytochrome P450 2D6 (Homo sapiens, UniProt P10635); assay: Inhibition of CYP2D6 (unknown origin); assay type: ADME
Sequence of Cytochrome P450 2D6 (P10635 whole entry): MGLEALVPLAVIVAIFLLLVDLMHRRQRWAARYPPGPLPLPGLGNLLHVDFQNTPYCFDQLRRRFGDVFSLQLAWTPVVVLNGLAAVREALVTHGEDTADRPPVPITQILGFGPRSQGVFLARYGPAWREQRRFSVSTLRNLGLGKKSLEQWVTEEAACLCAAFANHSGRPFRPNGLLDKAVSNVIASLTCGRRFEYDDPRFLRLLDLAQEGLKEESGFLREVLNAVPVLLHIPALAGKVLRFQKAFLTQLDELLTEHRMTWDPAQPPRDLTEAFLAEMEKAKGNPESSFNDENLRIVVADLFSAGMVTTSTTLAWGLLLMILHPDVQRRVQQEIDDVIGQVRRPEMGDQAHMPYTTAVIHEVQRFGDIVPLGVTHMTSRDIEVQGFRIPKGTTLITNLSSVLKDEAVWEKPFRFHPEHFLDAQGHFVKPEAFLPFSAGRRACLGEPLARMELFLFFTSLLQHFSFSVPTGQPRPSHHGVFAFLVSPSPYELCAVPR

Cytochrome P450 3A4 = Cytochrome P450 3A4 (Homo sapiens, UniProt P08684); assay: Inhibition of CYP3A4 (unknown origin); assay type: ADME
Sequence of Cytochrome P450 3A4 (P08684 whole entry): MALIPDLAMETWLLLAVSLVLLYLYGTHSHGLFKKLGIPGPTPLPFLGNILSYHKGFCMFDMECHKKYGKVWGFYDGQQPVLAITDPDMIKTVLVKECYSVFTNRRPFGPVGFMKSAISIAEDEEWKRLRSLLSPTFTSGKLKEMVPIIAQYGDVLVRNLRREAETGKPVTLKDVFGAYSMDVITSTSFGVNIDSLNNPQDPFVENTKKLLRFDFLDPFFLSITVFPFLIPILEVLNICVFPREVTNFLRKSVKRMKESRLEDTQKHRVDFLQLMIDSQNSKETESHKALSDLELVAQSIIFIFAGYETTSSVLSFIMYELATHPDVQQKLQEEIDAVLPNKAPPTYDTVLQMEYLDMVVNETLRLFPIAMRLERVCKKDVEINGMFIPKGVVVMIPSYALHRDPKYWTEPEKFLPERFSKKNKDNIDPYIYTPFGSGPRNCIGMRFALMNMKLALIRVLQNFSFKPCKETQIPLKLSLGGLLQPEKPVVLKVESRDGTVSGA

Structure (SMILES): N#Cc1ccc2ccc(=O)n(CCN3CCC(NCc4ccc5c(n4)NC(=O)CO5)CC3)c2c1
- IC50 [1]: 0.11 µM
- MIC [2]: 0.19 µM (≈ 0.0871 µg/mL)

Structure (SMILES): COc1cnc2ccc(=O)n(CCN3CCC(C4C(=O)Nc5ccc(Cl)cc54)CC3)c2c1 (stereo not drawn)
- IC50 [1]: > 50 µM
- MIC [2]: 100 µM (≈ 45.3 µg/mL)
- IC50 (DNA gyrase subunit B): > 100 µM
- IC50 (THP-1): > 50 µM
- logD [3]: 2.8
- IC50 [4]: 4.8 µM

Structure (SMILES): COc1cnc2ccc(=O)n(CCN3CCC(c4nc5cc(C(F)(F)F)ccc5[nH]4)CC3)c2c1
- MIC [2]: 0.19 µM (≈ 0.0896 µg/mL)
- IC50 (DNA gyrase subunit B): > 100 µM
- IC50 (THP-1): > 50 µM
- logD [3]: 4

Structure (SMILES): COc1cnc2ccc(=O)n(CCN3CCN(c4nc5cc(C(F)(F)F)ccc5[nH]4)CC3)c2c1
- MIC [2]: 3.13 µM (≈ 1.48 µg/mL)
- logD [3]: 2.8
- IC50 [4]: 10 µM

Structure (SMILES): COc1cnc2ccc(=O)n(CCN3CCN(c4nc5ccccc5[nH]4)CC3)c2c1
- MIC [2]: 100 µM (≈ 40.4 µg/mL)
- logD [3]: 2.4
- IC50 [4]: 7 µM

Structure (SMILES): O=c1ccc2ncc(F)cc2n1CCN1CCN(c2nc3cc(C(F)(F)F)ccc3[nH]2)CC1
- MIC [2]: 15 µM (≈ 6.91 µg/mL)
- logD [3]: 3.7

Structure (SMILES): O=c1ccc2ncc(F)cc2n1CCN1CCC(c2nc3cc(C(F)(F)F)ccc3[nH]2)CC1
- MIC [2]: 0.78 µM (≈ 0.358 µg/mL)

Structure (SMILES): N#Cc1ccc2[nH]c(C3CCN(CCn4c(=O)ccc5ncc(F)cc54)CC3)nc2c1
- MIC [2]: 50 µM (≈ 20.8 µg/mL)

Structure (SMILES): COc1cnc2ccc(=O)n(CCN3CCC(c4nc5cc(Cl)ccc5[nH]4)CC3)c2c1
- MIC [2]: 0.25 µM (≈ 0.109 µg/mL)
- logD [3]: 3.6

Structure (SMILES): COc1cnc2ccc(=O)n(CCN3CCC(c4nc5cc(C#N)ccc5[nH]4)CC3)c2c1
- MIC [2]: 3.15 µM (≈ 1.35 µg/mL)
- logD [3]: 2.4

Structure (SMILES): COc1cnc2ccc(=O)n(CCN3CCC(c4nc5cc(Cl)c(F)cc5[nH]4)CC3)c2c1
- IC50 [1]: 2 µM
- MIC [2]: 0.06 µM (≈ 0.0274 µg/mL)
- logD [3]: 4

Structure (SMILES): COc1cnc2ccc(=O)n(CCN3CCC(c4nc5cc(Cl)c(C)cc5[nH]4)CC3)c2c1
- MIC [2]: 0.13 µM (≈ 0.0588 µg/mL)
- logD [3]: 3.8

Structure (SMILES): Cc1cc2[nH]c(C3CCN(CCn4c(=O)ccc5ncc(F)cc54)CC3)nc2cc1Cl
- MIC [2]: 1.56 µM (≈ 0.686 µg/mL)
- logD [3]: 3.7
- IC50 [4]: 1.2 µM

Structure (SMILES): COc1ccc2ncc(=O)n(CCN3CCC(c4nc5cc(Cl)c(C)cc5[nH]4)CC3)c2c1
- MIC [2]: 0.13 µM (≈ 0.0588 µg/mL)

Structure (SMILES): COc1cnc2ncc(=O)n(CCN3CCC(c4nc5cc(Cl)c(C)cc5[nH]4)CC3)c2c1
- MIC [2]: 0.39 µM (≈ 0.177 µg/mL)
- logD [3]: 3.5
- IC50 [4]: 10 µM

Structure (SMILES): Cc1cc2[nH]c(C3CCN(CCn4c(=O)ccc5ncc(F)cc54)CC3)nc2cc1C#N
- MIC [2]: 3.15 µM (≈ 1.36 µg/mL)

Structure (SMILES): COc1cnc2ccc(=O)n(CCN3CCC(c4nc5cc(C#N)c(C)cc5[nH]4)CC3)c2c1
- IC50 [1]: 4.3 µM
- MIC [2]: 0.19 µM (≈ 0.0841 µg/mL)
- logD [3]: 2.8
- solubility [5]: 2.1 µM (≈ 0.929 µg/mL)
- Papp A→B [6]: 0.4 ×10⁻⁶ cm/s
- Papp B→A [7]: 28.1 ×10⁻⁶ cm/s
- clearance [8]: 35.5 mL/min/kg
- Vd [9]: 1.01 L/kg
- half-life [10]: 36 min
- AUC(0-inf) [11]: 470 ng·h/mL
- AUC(0-inf) [12]: 20 ng·h/mL
- bioavailability [13]: 1.1%
- IC50 (Cytochrome P450 1A2): > 30 µM
- IC50 (Cytochrome P450 2C9): > 30 µM
- IC50 (Cytochrome P450 2C19): > 30 µM
- IC50 (Cytochrome P450 2D6): 28 µM
- IC50 (Cytochrome P450 3A4): 9.4 µM

Structure (SMILES): COc1cnc2ccc(=O)n(CCN3CCN(c4nc5cc(C#N)c(C)cc5[nH]4)CC3)c2c1
- MIC [2]: 0.78 µM (≈ 0.346 µg/mL)
- logD [3]: 3.2
- solubility [5]: 3 µM (≈ 1.33 µg/mL)
- Papp A→B [6]: 1.5 ×10⁻⁶ cm/s
- Papp B→A [7]: 24.1 ×10⁻⁶ cm/s
- clearance [8]: 32.2 mL/min/kg
- Vd [9]: 1.54 L/kg
- half-life [10]: 48 min
- AUC(0-inf) [11]: 520 ng·h/mL
- AUC(0-inf) [12]: 160 ng·h/mL
- bioavailability [13]: 3.3%
- IC50 (Cytochrome P450 1A2): > 30 µM
- IC50 (Cytochrome P450 2C9): > 30 µM
- IC50 (Cytochrome P450 2C19): > 30 µM
- IC50 (Cytochrome P450 2D6): 20 µM
- IC50 (Cytochrome P450 3A4): 20 µM
- IC50 [4]: > 33 µM

Structure (SMILES): N#Cc1ccc2[nH]c(C3CCN(CCn4c(=O)ccc5ncc(Oc6cccnc6)cc54)CC3)nc2c1
- MIC [2]: 3.13 µM (≈ 1.54 µg/mL)
- logD [3]: 2.9

Structure (SMILES): N#Cc1ccc2[nH]c(C3CCN(CCn4c(=O)ccc5ncc(Oc6ccc(S(N)(=O)=O)cc6)cc54)CC3)nc2c1
- MIC [2]: 0.78 µM (≈ 0.444 µg/mL)
- logD [3]: 2.2
- IC50 [4]: > 33 µM

Structure (SMILES): NS(=O)(=O)c1ccc(Oc2cnc3ccc(=O)n(CCN4CCC(c5nc6cc(C(F)(F)F)ccc6[nH]5)CC4)c3c2)cc1
- IC50 [1]: 1.9 µM
- MIC [2]: 0.19 µM (≈ 0.116 µg/mL)
- logD [3]: 2.4
- IC50 [4]: > 33 µM

Structure (SMILES): COc1cnc2ccc(=O)n(CCN3CCC(c4c[nH]c5ccc(C#N)cc45)CC3)c2c1
- IC50 [1]: > 50 µM
- MIC [2]: 100 µM (≈ 42.8 µg/mL)
- IC50 (DNA gyrase subunit B): > 100 µM
- IC50 (THP-1): > 50 µM
- logD [3]: 3.3
- IC50 [4]: 2 µM

Structure (SMILES): COc1cnc2ccc(=O)n(CCN3CCC(c4c[nH]c5cc(C(F)(F)F)ccc45)CC3)c2c1
- IC50 [1]: > 50 µM
- MIC [2]: 50 µM (≈ 23.5 µg/mL)
- IC50 (DNA gyrase subunit B): > 100 µM
- IC50 (THP-1): > 50 µM
- logD [3]: 4

Structure (SMILES): O=c1ccc2ncc(F)cc2n1CCN1CCC(NCc2ccc(C(F)(F)F)nc2)CC1
- IC50 [1]: 0.25 µM
- MIC [2]: 0.19 µM (≈ 0.0854 µg/mL)

Structure (SMILES): O=C(O)c1cn(C2CC2)c2cc(N3CCNCC3)c(F)cc2c1=O [CIPROFLOXACIN]
- MIC [2]: 0.5 µM (≈ 0.166 µg/mL)

Structure (SMILES): NNC(=O)c1ccncc1 [ISONIAZID]
- MIC [2]: 0.06 µM (≈ 0.00823 µg/mL)

Structure (SMILES): COc1c(N2C[C@@H]3CCCN[C@@H]3C2)c(F)cc2c(=O)c(C(=O)O)cn(C3CC3)c12 [MOXIFLOXACIN]
- MIC [2]: 0.13 µM (≈ 0.0522 µg/mL)
